Measurements taken from ChEMBL document CHEMBL3421625, “Discovery and optimization of novel antagonists to the human neurokinin-3 receptor for the treatment of sex-hormone disorders (Part I)” (J Med Chem, 2015).
Values after ≈ are worked out from the molar mass of the structure shown.

Columns and labels:
[1] = in vivo; conditions: Sprague-Dawley, rat, iv, 1 mg/kg
[2] = molecular target: T1, NK-3 receptor (Macaca mulatta, UniProt Q2WGM0)
T1 sequence (Q2WGM0 whole entry): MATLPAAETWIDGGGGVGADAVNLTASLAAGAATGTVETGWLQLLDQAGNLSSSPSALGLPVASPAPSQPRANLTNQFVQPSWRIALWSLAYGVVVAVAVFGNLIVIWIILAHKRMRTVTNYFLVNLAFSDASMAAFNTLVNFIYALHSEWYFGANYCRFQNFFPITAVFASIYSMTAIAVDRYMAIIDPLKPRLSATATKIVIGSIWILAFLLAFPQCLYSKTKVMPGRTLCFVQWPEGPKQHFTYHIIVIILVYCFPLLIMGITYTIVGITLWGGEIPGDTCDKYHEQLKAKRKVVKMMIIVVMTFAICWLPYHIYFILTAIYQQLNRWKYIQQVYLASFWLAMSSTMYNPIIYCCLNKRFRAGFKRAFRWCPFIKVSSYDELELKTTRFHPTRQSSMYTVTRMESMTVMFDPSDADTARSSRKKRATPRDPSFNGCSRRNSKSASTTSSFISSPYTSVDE
Description: Displacement of [3H]-SB222200 from monkey NK3R after 90 mins by scintillation counting analysis

[3] = Total systemic clearance in Sprague-Dawley rat at 1 mg/kg, iv by LC-MS/MS analysis; assay type: ADME, organism-based; design: dose 1 mg/kg, route intravenous; conditions: in vivo
[4] = Ratio of unbound drug level in brain to plasma in Sprague-Dawley rat at 1 mg/kg, iv measured at 10 mins; conditions: brain and plasma
[5] = Ratio of unbound drug level in brain to plasma in Sprague-Dawley rat at 1 mg/kg, iv measured at 60 mins; conditions: brain and plasma
[6] = molecular target: Cytochrome P450 2D6 (Homo sapiens, UniProt P10635); assay: Inhibition of CYP2D6 (unknown origin) by luciferase reporter assay in presence of NADPH regeneration system; assay type: ADME
[7] = in vivo; conditions: Sprague-Dawley, rat, po, 3 mg/kg
[8] = Fraction unbound in rat plasma at 5 uM after 4 hrs by equilibrium dialysis method; assay type: ADME, cell-free
[9] = molecular target: Cytochrome P450 2C9 (Homo sapiens, UniProt P11712); assay: Inhibition of CYP2C9 (unknown origin) by luciferase reporter assay in presence of NADPH regeneration system; assay type: ADME
[10] = molecular target: T2, Neuromedin-K receptor (Rattus norvegicus, UniProt P16177)
T2 sequence (P16177 whole entry): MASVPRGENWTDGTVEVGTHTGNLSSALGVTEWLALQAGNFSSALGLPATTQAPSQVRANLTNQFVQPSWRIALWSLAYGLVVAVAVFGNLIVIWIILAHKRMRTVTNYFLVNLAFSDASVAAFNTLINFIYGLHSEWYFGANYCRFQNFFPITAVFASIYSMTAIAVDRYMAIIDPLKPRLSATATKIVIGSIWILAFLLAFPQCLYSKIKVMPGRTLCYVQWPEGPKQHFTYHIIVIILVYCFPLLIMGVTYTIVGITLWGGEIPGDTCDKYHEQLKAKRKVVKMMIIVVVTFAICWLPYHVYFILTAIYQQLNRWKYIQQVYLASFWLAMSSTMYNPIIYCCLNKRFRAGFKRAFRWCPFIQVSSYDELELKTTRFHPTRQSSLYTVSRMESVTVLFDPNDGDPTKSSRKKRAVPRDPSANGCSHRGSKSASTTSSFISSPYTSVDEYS
Description: Displacement of [3H]-SB222200 from rat NK3R after 90 mins by scintillation counting analysis

[11] = molecular target: Cytochrome P450 3A4 (Homo sapiens, UniProt P08684); assay: Inhibition of CYP3A4 (unknown origin) by luciferase reporter assay in presence of NADPH regeneration system; assay type: ADME
[12] = Lipophilicity, log D of the compound at pH 7.4; assay type: physicochemical; conditions: buffer
[13] = molecular target: Cytochrome P450 2C19 (Homo sapiens, UniProt P33261); assay: Inhibition of CYP2C19 (unknown origin) by luciferase reporter assay in presence of NADPH regeneration system
[14] = system: Rattus norvegicus; assay: Unbound AUC in Sprague-Dawley rat at 3 mg/kg, po by LC-MS/MS analysis; assay type: ADME, organism-based; design: dose 3 mg/kg, route oral; conditions: in vivo
[15] = molecular target: T3, Cytochrome P450 1A2 (Homo sapiens, UniProt P05177); assay: Inhibition of CYP1A2 (unknown origin) by luciferase reporter assay in presence of NADPH regeneration system; assay type: ADME
T3 sequence (P05177 whole entry): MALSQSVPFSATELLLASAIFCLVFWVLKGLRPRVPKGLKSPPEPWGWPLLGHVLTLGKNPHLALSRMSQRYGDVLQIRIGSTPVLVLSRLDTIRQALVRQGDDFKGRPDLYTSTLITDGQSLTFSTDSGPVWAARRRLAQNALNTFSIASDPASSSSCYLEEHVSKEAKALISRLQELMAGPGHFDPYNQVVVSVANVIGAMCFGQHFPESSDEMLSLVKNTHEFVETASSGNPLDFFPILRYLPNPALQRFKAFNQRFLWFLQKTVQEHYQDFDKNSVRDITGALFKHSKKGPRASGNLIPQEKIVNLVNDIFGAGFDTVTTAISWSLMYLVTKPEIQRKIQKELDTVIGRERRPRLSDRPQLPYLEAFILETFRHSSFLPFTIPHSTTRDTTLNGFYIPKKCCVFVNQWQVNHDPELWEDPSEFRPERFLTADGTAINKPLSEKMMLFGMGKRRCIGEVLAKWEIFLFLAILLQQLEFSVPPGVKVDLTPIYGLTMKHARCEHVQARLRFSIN

[16] = Fraction unbound in rat brain at 5 uM after 4 hrs by equilibrium dialysis method; assay type: ADME, tissue-based
[17] = system: Rattus norvegicus; assay: Unbound AUC in Sprague-Dawley rat at 1 mg/kg, iv by LC-MS/MS analysis; assay type: ADME, organism-based; design: dose 1 mg/kg, route intravenous; conditions: in vivo
[18] = Solubility of the compound in PBS buffer at pH 7.4 by shake-flask method; assay type: physicochemical
[19] = in vivo; conditions: Sprague-Dawley, rat, iv, 1 mg/kg; remark: listed apart in the source
Description: Volume of distribution at steady state in Sprague-Dawley rat at 1 mg/kg, iv by LC-MS/MS analysis

[20] = system: Rattus norvegicus; assay: Unbound Cmax in Sprague-Dawley rat at 3 mg/kg, po by LC-MS/MS analysis; assay type: ADME, organism-based; design: dose 3 mg/kg, route oral; conditions: in vivo
[21] = molecular target: T4, Gonadotropin-releasing hormone receptor (Homo sapiens) (UniProt P30968); assay: Inhibition of GnRH-R (unknown origin) at 10 uM relative to control
T4 sequence (whole entry): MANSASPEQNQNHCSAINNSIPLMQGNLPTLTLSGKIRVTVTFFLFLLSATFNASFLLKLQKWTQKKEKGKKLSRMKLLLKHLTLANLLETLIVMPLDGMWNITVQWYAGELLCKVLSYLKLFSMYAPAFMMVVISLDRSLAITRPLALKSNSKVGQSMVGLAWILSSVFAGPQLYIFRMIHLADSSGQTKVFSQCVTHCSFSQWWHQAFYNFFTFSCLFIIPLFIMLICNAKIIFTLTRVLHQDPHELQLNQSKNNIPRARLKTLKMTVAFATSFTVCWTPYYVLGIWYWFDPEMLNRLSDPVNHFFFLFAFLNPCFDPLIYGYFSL

[22] = system: Cynomolgus monkey; assay: In vivo inhibition of NK3R in castrated cynomolgus monkey assessed as decrease in plasma luteinizing hormone level at 20 mg/kg, po measured at 90 mins relative to control; assay type: functional; conditions: Macaca fascicularis, 1.5 h

Cytochrome P450 3A4, sequence (P08684 whole entry): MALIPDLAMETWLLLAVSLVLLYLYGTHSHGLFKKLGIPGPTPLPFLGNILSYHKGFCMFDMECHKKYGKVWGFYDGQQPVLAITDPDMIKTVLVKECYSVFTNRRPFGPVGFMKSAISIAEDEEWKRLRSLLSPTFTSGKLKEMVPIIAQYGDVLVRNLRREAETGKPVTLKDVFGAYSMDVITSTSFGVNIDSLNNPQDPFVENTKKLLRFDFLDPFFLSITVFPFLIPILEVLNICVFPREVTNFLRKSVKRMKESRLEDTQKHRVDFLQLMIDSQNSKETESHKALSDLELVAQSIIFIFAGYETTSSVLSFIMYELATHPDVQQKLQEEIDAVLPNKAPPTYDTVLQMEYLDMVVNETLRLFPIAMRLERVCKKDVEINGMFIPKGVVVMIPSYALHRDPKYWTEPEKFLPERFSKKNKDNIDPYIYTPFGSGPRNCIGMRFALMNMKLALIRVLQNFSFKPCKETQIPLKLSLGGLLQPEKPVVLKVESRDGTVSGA
Cytochrome P450 2C9, sequence (P11712 whole entry): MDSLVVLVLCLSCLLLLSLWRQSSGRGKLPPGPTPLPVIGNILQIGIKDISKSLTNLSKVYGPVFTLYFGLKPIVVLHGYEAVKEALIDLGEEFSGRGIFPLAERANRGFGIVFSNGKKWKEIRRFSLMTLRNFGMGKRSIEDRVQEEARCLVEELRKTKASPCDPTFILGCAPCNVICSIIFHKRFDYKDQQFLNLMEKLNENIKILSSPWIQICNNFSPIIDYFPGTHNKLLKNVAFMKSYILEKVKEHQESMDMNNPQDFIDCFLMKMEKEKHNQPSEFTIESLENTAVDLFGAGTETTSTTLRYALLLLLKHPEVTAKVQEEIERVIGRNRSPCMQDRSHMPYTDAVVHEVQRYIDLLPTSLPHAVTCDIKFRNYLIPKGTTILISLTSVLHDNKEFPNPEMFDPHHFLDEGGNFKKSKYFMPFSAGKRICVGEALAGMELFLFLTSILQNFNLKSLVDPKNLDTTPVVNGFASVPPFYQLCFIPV
Cytochrome P450 2C19, sequence (P33261 whole entry): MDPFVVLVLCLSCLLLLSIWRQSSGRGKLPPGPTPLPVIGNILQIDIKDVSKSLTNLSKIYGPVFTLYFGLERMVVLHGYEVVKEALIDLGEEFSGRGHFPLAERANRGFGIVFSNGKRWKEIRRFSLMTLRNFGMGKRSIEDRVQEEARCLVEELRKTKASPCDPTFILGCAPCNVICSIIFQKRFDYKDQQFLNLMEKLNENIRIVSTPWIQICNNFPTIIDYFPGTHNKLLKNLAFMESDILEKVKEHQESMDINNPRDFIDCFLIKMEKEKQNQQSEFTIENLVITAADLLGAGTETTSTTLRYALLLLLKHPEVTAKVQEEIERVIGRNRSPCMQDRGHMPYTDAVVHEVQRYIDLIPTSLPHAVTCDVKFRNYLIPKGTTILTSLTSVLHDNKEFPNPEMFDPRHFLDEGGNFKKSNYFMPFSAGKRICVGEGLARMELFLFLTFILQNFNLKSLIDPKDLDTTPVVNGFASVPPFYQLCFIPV
Cytochrome P450 2D6, sequence (P10635 whole entry): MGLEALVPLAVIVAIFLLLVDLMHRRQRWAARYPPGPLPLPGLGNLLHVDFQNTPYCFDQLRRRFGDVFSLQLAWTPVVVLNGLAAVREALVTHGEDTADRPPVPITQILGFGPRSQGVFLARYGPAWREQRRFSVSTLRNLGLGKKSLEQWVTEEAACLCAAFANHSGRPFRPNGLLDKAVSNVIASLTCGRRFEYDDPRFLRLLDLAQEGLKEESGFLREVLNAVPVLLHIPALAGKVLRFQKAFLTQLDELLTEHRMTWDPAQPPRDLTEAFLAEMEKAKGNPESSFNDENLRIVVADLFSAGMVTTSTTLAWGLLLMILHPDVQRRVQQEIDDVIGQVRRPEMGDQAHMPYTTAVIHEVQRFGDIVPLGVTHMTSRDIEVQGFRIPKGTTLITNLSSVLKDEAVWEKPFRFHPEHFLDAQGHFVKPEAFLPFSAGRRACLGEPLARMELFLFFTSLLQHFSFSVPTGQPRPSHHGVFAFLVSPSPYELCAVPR

Question: Which half-life [1] does the source give for `C[C@@H]1c2nnc(-c3csc(-c4ccc(F)cc4F)n3)n2CCN1C(=O)c1ccc(-c2cccs2)cc1` here?
Answer: 321 min

Question: And the Ki [2]?
Answer: 0.00398 µM

Question: And the clearance [3]?
Answer: 8.9 mL/min/kg

Question: What about the Kp uu at 10 min [4] of the same compound?
Answer: 1.9

Question: And the Kp uu at 1 h [5]?
Answer: 2.5

Question: And the IC50 [6]?
Answer: 7 µM

Question: What about the Tmax [7] of the same compound?
Answer: 45 min

Question: And the fraction unbound at 4 h, 5 µM [8]?
Answer: 0.0008

Question: What about the IC50 [9] of the same compound?
Answer: 3 µM

Question: What about the Ki [10] of the same compound?
Answer: 0.013 µM

Question: And the IC50 [11]?
Answer: 19 µM

Question: What about the logD [12] of the same compound?
Answer: 5

Question: And the IC50 [13]?
Answer: 4 µM

Question: And the fAUC [14]?
Answer: 0.1 µM·min

Question: And the IC50 [15]?
Answer: 21 µM

Question: What about the fraction unbound at 4 h, 5 µM [16] of the same compound?
Answer: 0.001

Question: And the fAUC [17]?
Answer: 0.2 µM·min

Question: What about the solubility thermodynamic [18] of the same compound?
Answer: 0.4 µM (≈ 0.208 µg/mL)

Question: And the Vd [19]?
Answer: 4.1 L/kg

Question: What about the fCmax [20] of the same compound?
Answer: 0.14 nM

Question: What about the inhibition [21] of the same compound?
Answer: 35%

Question: For `Cc1nc(-c2nnc3n2CCN(C(=O)c2ccc(-c4cccs4)cc2)[C@@H]3C)cs1`, which Ki [2] is on record?
Answer: 0.02 µM

Question: What about the clearance [3] of the same compound?
Answer: 7.4 mL/min/kg

Question: What about the Kp uu at 10 min [4] of the same compound?
Answer: 0.2

Question: What about the Kp uu at 1 h [5] of the same compound?
Answer: 0.1

Question: What about the inhibition in vivo at 20 mg/kg [22] of the same compound?
Answer: 40%

Question: What about the IC50 [6] of the same compound?
Answer: > 100 µM

Question: And the Tmax [7]?
Answer: 45 min

Question: What about the fraction unbound at 4 h, 5 µM [8] of the same compound?
Answer: 0.055

Question: What about the IC50 [9] of the same compound?
Answer: 21 µM

Question: And the Ki [10]?
Answer: 0.076 µM

Question: What about the IC50 [11] of the same compound?
Answer: 50 µM

Question: And the logD ([12]; read-out: logD)?
Answer: 3.1

Question: What about the IC50 [13] of the same compound?
Answer: 34 µM

Question: What about the fAUC [14] of the same compound?
Answer: 60.3 µM·min

Question: And the IC50 [15]?
Answer: 26 µM

Question: And the fraction unbound at 4 h, 5 µM [16]?
Answer: 0.028

Question: And the fAUC [17]?
Answer: 16.9 µM·min

Question: What about the solubility thermodynamic [18] of the same compound?
Answer: 118 µM (≈ 49.7 µg/mL)

Question: And the Vd [19]?
Answer: 1.4 L/kg

Question: What about the fCmax [20] of the same compound?
Answer: 443 nM

Question: What about the inhibition [21] of the same compound?
Answer: 30%
